# Data as given in ChEMBL document CHEMBL1201862, “PubChem BioAssay data set” (2004).
#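 Dose response: 5 concentrations. Exposure: 48 h. Format: 96-well plates. Endpoint: linear interpolation; highest concentration if not reached. Abbreviation: GI50, concentration required for 50% inhibition of growth.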 Activity calls are given as the source filed them. Cut-off read from the data, not from the text of the source: active = GI50 up to about 1.1 µM and inactive = higher.
# Legend:
# Experiment in all cases: inhibition of tumour cell growth, NCI panel, 48 h
# 786-0 = test system: 786-0
# A498 = test system: A498
# A549 = test system: A549
# ACHN = test system: ACHN
# COLO 205 = test system: COLO 205
# DLD-1 = test system: DLD-1
# DMS-114 = test system: DMS-114
# DMS-273 = test system: DMS-273
# EKVX = test system: EKVX
# HCC 2998 = test system: HCC 2998
# HCT-116 = test system: HCT-116
# HCT-15 = test system: HCT-15
# HL-60 = test system: HL-60
# HOP-18 = test system: HOP-18
# HOP-62 = test system: HOP-62
# HOP-92 = test system: HOP-92
# HT-29 = test system: HT-29
# IGROV-1 = test system: IGROV-1
# K562 = test system: K562
# KM-20L2 = test system: KM-20L2
# KM12 = test system: KM12
# LXFL 529 = test system: LXFL 529
# M14 = test system: M14
# M19-MEL = test system: M19-MEL
# MOLT-4 = test system: MOLT-4
# Malme-3M = test system: Malme-3M
# NCI-H226 = test system: NCI-H226
# NCI-H23 = test system: NCI-H23
# NCI-H460 = test system: NCI-H460
# NCI-H522 = test system: NCI-H522
# OVCAR-3 = test system: OVCAR-3
# OVCAR-4 = test system: OVCAR-4
# OVCAR-5 = test system: OVCAR-5
# OVCAR-8 = test system: OVCAR-8
# RPMI-8226 = test system: RPMI-8226
# RXF 393 = test system: RXF 393
# RXF 631 = test system: RXF 631
# SF-268 = test system: SF-268
# SF-295 = test system: SF-295
# SF-539 = test system: SF-539
# SK-MEL-2 = test system: SK-MEL-2
# SK-MEL-5 = test system: SK-MEL-5
# SK-OV-3 = test system: SK-OV-3
# SN12C = test system: SN12C
# SNB-19 = test system: SNB-19
# SNB-75 = test system: SNB-75
# SNB-78 = test system: SNB-78
# SR = test system: SR
# SW-620 = test system: SW-620
# TK-10 = test system: TK-10
# U-251 = test system: U-251
# UACC-257 = test system: UACC-257
# UACC-62 = test system: UACC-62
# UO-31 = test system: UO-31
# XF498 = test system: XF498
# CCRF-CEM = test system: CCRF-CEM
# LOX IMVI = test system: LOX IMVI
# SK-MEL-28 = test system: SK-MEL-28
compound,measurement,setting,value
C[n+]1c2ccccc2c(NC(CCC(N)=O)C(=O)O)c2ccccc21 (stereo not given),GI50,786-0,> 100 µM (inactive)
same,GI50,A498,> 100 µM (inactive)
same,GI50,A549,> 100 µM (inactive)
same,GI50,ACHN,> 100 µM (inactive)
same,GI50,COLO 205,> 100 µM (inactive)
same,GI50,DLD-1,> 100 µM (inactive)
same,GI50,DMS-114,> 100 µM (inactive)
same,GI50,DMS-273,> 100 µM (inactive)
same,GI50,EKVX,> 100 µM (inactive)
same,GI50,HCC 2998,> 100 µM (inactive)
same,GI50,HCT-116,> 100 µM (inactive)
same,GI50,HCT-15,> 100 µM
same,GI50,HL-60,> 100 µM (inactive)
same,GI50,HOP-18,> 100 µM (inactive)
same,GI50,HOP-62,> 100 µM (inactive)
same,GI50,HOP-92,> 100 µM (inactive)
same,GI50,HT-29,> 100 µM (inactive)
same,GI50,IGROV-1,> 100 µM (inactive)
same,GI50,K562,> 100 µM (inactive)
same,GI50,KM-20L2,> 100 µM (inactive)
same,GI50,KM12,73.5 µM (inactive)
same,GI50,LXFL 529,> 100 µM (inactive)
same,GI50,M14,> 100 µM (inactive)
same,GI50,M19-MEL,> 100 µM (inactive)
same,GI50,MOLT-4,> 100 µM (inactive)
same,GI50,Malme-3M,> 100 µM (inactive)
same,GI50,NCI-H226,> 100 µM (inactive)
same,GI50,NCI-H23,> 100 µM (inactive)
same,GI50,NCI-H460,> 100 µM (inactive)
same,GI50,NCI-H522,> 100 µM (inactive)
same,GI50,OVCAR-3,> 100 µM (inactive)
same,GI50,OVCAR-4,> 100 µM (inactive)
same,GI50,OVCAR-5,> 100 µM (inactive)
same,GI50,OVCAR-8,> 100 µM (inactive)
same,GI50,RPMI-8226,21 µM (inactive)
same,GI50,RXF 393,> 100 µM (inactive)
same,GI50,RXF 631,> 100 µM (inactive)
same,GI50,SF-268,> 100 µM (inactive)
same,GI50,SF-295,> 100 µM (inactive)
same,GI50,SF-539,> 100 µM (inactive)
same,GI50,SK-MEL-2,> 100 µM (inactive)
same,GI50,SK-MEL-5,> 100 µM (inactive)
same,GI50,SK-OV-3,> 100 µM (inactive)
same,GI50,SN12C,> 100 µM (inactive)
same,GI50,SNB-19,> 100 µM (inactive)
same,GI50,SNB-75,> 100 µM (inactive)
same,GI50,SNB-78,> 100 µM (inactive)
same,GI50,SR,> 100 µM (inactive)
same,GI50,SW-620,> 100 µM (inactive)
same,GI50,TK-10,> 100 µM (inactive)
same,GI50,U-251,> 100 µM (inactive)
same,GI50,UACC-257,> 100 µM (inactive)
same,GI50,UACC-62,> 100 µM (inactive)
same,GI50,UO-31,> 100 µM (inactive)
same,GI50,XF498,> 100 µM (inactive)
CCOC(=O)Cn1c2ccccc2c(=O)c2cc(C)c(C)c(C#N)c21,GI50,786-0,> 100 µM (inactive)
same,GI50,A549,> 100 µM (inactive)
same,GI50,ACHN,> 100 µM (inactive)
same,GI50,CCRF-CEM,> 100 µM (inactive)
same,GI50,COLO 205,> 100 µM (inactive)
same,GI50,DLD-1,> 100 µM (inactive)
same,GI50,DMS-273,> 100 µM (inactive)
same,GI50,EKVX,> 100 µM (inactive)
same,GI50,HCC 2998,> 100 µM (inactive)
same,GI50,HCT-116,53.5 µM (inactive)
same,GI50,HCT-15,> 100 µM
same,GI50,HL-60,> 100 µM (inactive)
same,GI50,HOP-18,> 100 µM (inactive)
same,GI50,HOP-62,40.7 µM (inactive)
same,GI50,HOP-92,21.8 µM (inactive)
same,GI50,HT-29,> 100 µM (inactive)
same,GI50,IGROV-1,> 100 µM (inactive)
same,GI50,KM-20L2,> 100 µM (inactive)
same,GI50,LOX IMVI,> 100 µM (inactive)
same,GI50,LXFL 529,> 100 µM (inactive)
same,GI50,M19-MEL,> 100 µM (inactive)
same,GI50,MOLT-4,> 100 µM (inactive)
same,GI50,Malme-3M,> 100 µM (inactive)
same,GI50,NCI-H226,> 100 µM (inactive)
same,GI50,NCI-H23,> 100 µM (inactive)
same,GI50,NCI-H460,> 100 µM (inactive)
same,GI50,OVCAR-3,> 100 µM (inactive)
same,GI50,OVCAR-5,> 100 µM (inactive)
same,GI50,OVCAR-8,84.3 µM (inactive)
same,GI50,RPMI-8226,> 100 µM (inactive)
same,GI50,RXF 393,63.7 µM (inactive)
same,GI50,RXF 631,> 100 µM (inactive)
same,GI50,SF-268,> 100 µM (inactive)
same,GI50,SF-295,40.4 µM (inactive)
same,GI50,SF-539,> 100 µM (inactive)
same,GI50,SK-MEL-28,> 100 µM (inactive)
same,GI50,SK-MEL-2,> 100 µM (inactive)
same,GI50,SK-OV-3,55.5 µM (inactive)
same,GI50,SN12C,> 100 µM (inactive)
same,GI50,SNB-19,> 100 µM (inactive)
same,GI50,SNB-75,23.2 µM (inactive)
same,GI50,SNB-78,> 100 µM (inactive)
same,GI50,SR,> 100 µM (inactive)
same,GI50,SW-620,> 100 µM (inactive)
same,GI50,TK-10,> 100 µM (inactive)
same,GI50,U-251,> 100 µM (inactive)
same,GI50,UACC-257,> 100 µM (inactive)
same,GI50,UACC-62,> 100 µM (inactive)
same,GI50,UO-31,68.5 µM (inactive)
same,GI50,XF498,30.2 µM (inactive)
